The results in this text go back to patent US9981940B2, “Aryl sulfide derivatives and aryl sulfoxide derivatives as acaricides and insecticides” (BAYER CROPSCIENCE AKTIENGESELLSCHAFT, priority 2013, dated 2018).

Data set [1] can be described thus: log P by HPLC (OECD Guideline 117), method [a] acidic range. The class given is physicochemical. The settings on record: for logP[a]: HPLC, method [a] acidic range; for chromatographic logP: reversed-phase C18 HPLC column, acidic range. As for the experimental part:
(§1) The log P values were determined analogously to OECD Guideline 117 (EC Directive 92/69/EEC) by HPLC (high-performance liquid chromatography) using reversed-phase columns (C 18), by the following methods:
[a] The LC-MS determination in the acidic range is effected at pH 2.7 with 0.1% aqueous formic acid and acetonitrile (contains 0.1% formic acid) as eluents; linear gradient from 10% acetonitrile to 95% acetonitrile.

Data set [2] in a line: log P by HPLC (OECD Guideline 117), method [b] neutral range. The conditions noted are these: HPLC; for logP[b]: method [b] neutral range; for chromatographic logP: reversed-phase C18 HPLC column, neutral range, pH 7.8. In kind it is physicochemical. As for the experimental part:
as §1
[b] The LC-MS determination in the neutral range is effected at pH 7.8 with 0.001 molar aqueous ammonium hydrogencarbonate solution and acetonitrile as eluents; linear gradient from 10% acetonitrile to 95% acetonitrile.

Another data set deals with Tetranychus urticae. The data set is described as follows: Tetranychus urticae spray test, OP-resistant (TETRUR). The class given is in vivo. The conditions noted are these: application rate of 500 g/ha, after 6 days; for pest or weed control at 500 g/ha: Tetranychus urticae, 144 h, read-out: efficacy. The procedure, abridged:
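Bean leaf discs infested with all stages of an OP-resistant Tetranychus urticae strain sprayed with compound in acetone/DMF with alkylaryl polyglycol ether emulsifier, diluted in water. Efficacy in % scored after 6 days; 100% means all mites killed.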

[3] abbreviates: pH 2.7, HPLC method [a], read-out: logP[a].
[4] abbreviates: pH 2.7, HPLC, pH 2.7, read-out: log P[a].

Structures are written as SMILES.

`CCC(C)c1nn(-c2cc([S+]([O-])CC(F)(F)F)c(C)cc2F)c(=O)n1C1CC1` (racemic) [Example 86]: the “logP[a]” value in data set [1] is listed as 2.86. Moreover, the “logP[b]” value in data set [2] turned out to be 2.79. In the data set on Tetranychus urticae, this compound yielded an efficacy of 100%.
Regarding `COc1nn(-c2cc([S+]([O-])CC(F)(F)F)c(F)cc2F)c(=O)n1C1CC1` (centres unmarked) [Example 170], the “logP[a]” value in data set [1] came out at 2.15. For the same compound, in data set [2], the “logP[b]” value was 2.11. The efficacy in the data set with Tetranychus urticae was found to be 100%.
Turning to `Cc1ccc(-n2nc(OCc3ccccc3)n(C)c2=O)cc1[S+]([O-])CC(F)(F)F` (centres unmarked) [Example 178], in data set [1], the “logP[a]” value is recorded as 3.23. Also, the “logP[b]” value in data set [2] was found to be 3.18. The efficacy in the data set with Tetranychus urticae was 90%.
As to `COC1=CC(=O)N(c2ccc(C)c([S+]([O-])CC(F)(F)F)c2)C1` (racemic) [Example 317], the “logP[a]” value in data set [1] was found to be 1.90. The “logP[b]” value in data set [2] is reported as 1.90. The compound further registered an efficacy in the data set with Tetranychus urticae of 90%.
In the case of `Cc1cc(F)c(-n2nc([S+](C)[O-])n(C)c2=O)cc1[S+]([O-])CC(F)(F)F` (centres unmarked) [Example 233], the “logP[a]” value in data set [1] worked out at 1.47. In addition, in data set [2], the “logP[b]” value is listed as 1.44. This compound also displayed an efficacy in the data set with Tetranychus urticae of 100%.
Take `Cc1cc(F)c(-n2nc(OCC(C)(C)C)n(C3CC3)c2=O)cc1[S+]([O-])CC(F)(F)F` (racemic) [Example 387]: in data set [1], the “logP[a]” value amounted to 3.60. Besides, the “logP[b]” value in data set [2] is recorded as 3.52. Also, the efficacy with Tetranychus urticae is recorded as 90%.
With `Cc1cc(F)c(-n2nc(OC3CCCCC3)n(C)c2=O)cc1[S+]([O-])CC(F)(F)F` (centres unmarked) [Example 164], the “logP[a]” value in data set [1] is recorded as 3.29. Moreover, the “logP[b]” value in data set [2] stood at 3.22. In the data set on Tetranychus urticae, the efficacy was determined as 90%.
Take `Cc1cc(F)c(-n2nc(OCC(C)C)n(C)c2=O)cc1[S+]([O-])CC(F)(F)F` (centres unmarked) [Example 152]: in data set [1], the “logP[a]” value is listed as 2.90. Besides, in data set [2], the “logP[b]” value is reported as 2.83. For the same compound, the efficacy in the data set on Tetranychus urticae stood at 90%.
On to `Cc1cc(F)c(-n2nnn(-c3ccc(Cl)cc3)c2=O)cc1[S+]([O-])CC(F)(F)F` (centres unmarked) [Example 307, 1-(4-Chlorophenyl)-4-{2-fluoro-4-methyl-5-[(2,2,2-trifluoroethyl)sulphinyl]phenyl}-1,4-dihydro-5H-tetrazol-5-one], for which the chromatographic logP in data set [1] (setting [3]) stood at 3.53; in data set [1] (setting [4]), 3.53; in data set [2], 3.49. The pest or weed control at 500 g/ha in the data set with Tetranychus urticae was 100%.
As for `CC[S+]([O-])c1nn(-c2cc(SCC(F)(F)F)c(C)cc2F)c(=O)n1C1CC1` (centres unmarked) [Example 234], the “logP[a]” value in data set [1] was 2.68. Moreover, the “logP[b]” value in data set [2] came out at 2.65. Also, the efficacy with Tetranychus urticae is on record as 100%.
With `CCOc1nn(-c2ccc(C)c(SCC(F)(F)F)c2)c(=O)n1C1CC1` [Example 122], the “logP[a]” value in data set [1] is 4.19. In addition, in data set [2], the “logP[b]” value turned out to be 4.04. For the same compound, the efficacy in the data set on Tetranychus urticae came out at 100%.
Consider `COCCCn1c(OC)nn(-c2cc(SCC(F)(F)F)c(C)cc2F)c1=O` [Example 388], for which, in data set [1], the “logP[a]” value was found to be 3.16. The “logP[b]” value in data set [2] is on record as 3.15. Also, the efficacy in the data set on Tetranychus urticae is given as 90%.
The matching figures for `Cc1cc(F)c(-n2nc(C(F)(F)F)n(C3CC3)c2=O)cc1SCC(F)(F)F` [Example 59]: 3.97, 3.91 and 100%.
The matching figures for `C=CCn1c([S+]([O-])C(C)C)nn(-c2cc([S+]([O-])CC(F)(F)F)c(C)cc2F)c1=O` (centres unmarked) [Example 249]: 2.32, 2.26 and 90%.
As to `Cc1cc(F)c(-n2nc(C3CC3)n(N(C)C)c2=O)cc1[S+]([O-])CC(F)(F)F` (centres unmarked) [Example 197, 5-Cyclopropyl-4-(dimethylamino)-2-{2-fluoro-4-methyl-5-[(2,2,2-trifluoroethyl)sulphinyl]phenyl}-2,4-dihydro-3H-1,2,4-triazol-3-one], the chromatographic logP in data set [1] (setting [3]) stood at 2.6; in data set [1] (setting [4]), 2.6; in data set [2], 2.59. Moreover, the pest or weed control at 500 g/ha in the data set on Tetranychus urticae is 100%.
